Measured values as given in patent publication US5212201A, “Xanthine oxidase inhibitor” (priority 1989, dated 1993).
Where two headings read alike, the source gives them in different places.

Experiments:
[1] = biological target: xanthine oxidase (Bos taurus, UniProt P80457); assay: xanthine oxidase inhibitory activity (absorbance at 290 nm, xanthine substrate); type: biochemical; details: for activity compared with known xanthine oxidase inhibitors allopurinol, luteolin / activity compared with quercetin: as seen from Table 1; for Total activity: purification from Perilla frutescens (3.73 kg fresh weight); for Total activity / Specific activity: 1 U = activity required for inhibiting 50% of xanthine oxidase; for Specific activity: purification from Perilla frutescens; for Relative intensity: relative to 1.00 (XOI-A and allopurinol), from concentration for 50% inhibitory rate
Method: This xanthine oxidase inhibitory activity can be determined, for example, as follows:
Enzyme solution: An enzyme solution is prepared by dissolving 150 μl of xanthine oxidase (15.2 units/ml) in 10 ml of 1/15 M phosphate buffer (pH 7.5).
Substrate solution: A substrate solution is prepared by heating 22.8 mg of xanthine in 1 liter of water to dissolve it.
Determination: 0.1 ml of the enzyme solution and 2.9 ml of phosphate buffer (the same as that described above) are admixed with 1.0 ml of the sample solution and the mixture is incubated at 37° C. for 10 minutes.
Then, 1 ml of the substrate solution preincubated at 37° C. is added to this reaction mixture and, after reaction for 30 minutes, an absorbance at 290 nm (D1) is measured.
Separately, an absorbance at 290 nm (D2) of a reaction mixture obtained by the similar reaction procedure using a heat inactivated enzyme, an absorbance (D3) without addition of the sample solution, and absorbance (D4) of a reaction mixture obtained by using a heat-inactivated enzyme without addition of the sample solution are measured. By using the values obtained by these measurements, the inhibitory rate of xanthine oxidase is calculated by using the following equation:
Inhibitory Rate (%)={1-(D1 -D2)/(D3 -D4 }×100
In Table 2, 1 U represents the activity required for inhibiting 50% of xanthine oxidase.

[2] = solubility in solvents; type: physicochemical
[3] = xanthine oxidase, pH 7.5, 37° C., reaction for 30 minutes, read-out: Concentration for 50% inhibitory rate (converted)

xanthine oxidase, sequence (P80457 whole entry): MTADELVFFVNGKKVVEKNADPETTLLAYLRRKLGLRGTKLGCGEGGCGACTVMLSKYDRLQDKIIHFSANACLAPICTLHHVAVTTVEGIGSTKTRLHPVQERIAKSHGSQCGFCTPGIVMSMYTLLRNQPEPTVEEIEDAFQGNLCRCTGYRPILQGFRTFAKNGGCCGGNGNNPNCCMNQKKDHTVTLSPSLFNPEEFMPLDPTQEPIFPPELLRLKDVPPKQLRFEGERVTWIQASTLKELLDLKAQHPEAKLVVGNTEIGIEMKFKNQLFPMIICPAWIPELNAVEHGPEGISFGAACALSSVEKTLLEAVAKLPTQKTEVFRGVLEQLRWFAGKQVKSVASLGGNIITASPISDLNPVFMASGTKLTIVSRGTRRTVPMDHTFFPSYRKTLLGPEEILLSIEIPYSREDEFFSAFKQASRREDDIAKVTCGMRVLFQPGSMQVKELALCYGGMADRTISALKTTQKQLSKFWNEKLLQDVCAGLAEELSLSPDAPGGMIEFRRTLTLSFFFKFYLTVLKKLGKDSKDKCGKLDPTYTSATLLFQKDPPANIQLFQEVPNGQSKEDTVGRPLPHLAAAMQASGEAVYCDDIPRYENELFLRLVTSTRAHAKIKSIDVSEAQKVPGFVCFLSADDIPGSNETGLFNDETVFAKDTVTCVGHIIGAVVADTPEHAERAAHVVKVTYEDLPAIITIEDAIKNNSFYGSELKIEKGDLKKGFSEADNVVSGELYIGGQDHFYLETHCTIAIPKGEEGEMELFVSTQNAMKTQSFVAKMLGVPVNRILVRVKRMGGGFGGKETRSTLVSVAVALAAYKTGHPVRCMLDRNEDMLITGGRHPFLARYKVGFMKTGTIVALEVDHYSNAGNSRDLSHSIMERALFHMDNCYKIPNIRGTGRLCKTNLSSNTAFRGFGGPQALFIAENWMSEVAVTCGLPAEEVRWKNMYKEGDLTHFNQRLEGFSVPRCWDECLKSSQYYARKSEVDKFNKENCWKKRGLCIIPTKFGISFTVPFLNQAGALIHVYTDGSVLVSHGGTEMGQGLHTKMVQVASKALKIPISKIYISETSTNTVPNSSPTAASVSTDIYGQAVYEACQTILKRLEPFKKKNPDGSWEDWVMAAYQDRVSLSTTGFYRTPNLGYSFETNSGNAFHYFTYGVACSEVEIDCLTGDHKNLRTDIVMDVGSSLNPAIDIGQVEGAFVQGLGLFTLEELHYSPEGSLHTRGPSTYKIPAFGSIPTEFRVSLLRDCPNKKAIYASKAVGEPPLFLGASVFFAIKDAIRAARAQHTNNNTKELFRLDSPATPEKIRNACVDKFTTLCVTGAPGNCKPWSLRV

SMILES	activity compared with known xanthine oxidase inhibitors allopurinol, luteolin [1]	activity compared with quercetin [1]	Total activity [1]	Specific activity [1]	Specific activity, figure in parentheses (relative to ethanol extract = 1) ([1]; purification step)	Total activity, figure in parentheses (relative to ethanol extract = 100) ([1]; purification step, ethanol extract = 100)	IC50 [1, 3]	solubility in methanol, propanol, acetone, ethyl acetate or acetonitrile [2]	solubility in water, chloroform or hexane [2]	IC50 [1]	Relative intensity [1]
O=C(/C=C/c1ccc(O)c(O)c1)O/C=C\c1ccc(O)c(O)c1 [XOI-A, (Z,E)-2-(3,4-dihydroxyphenyl)ethenylester of 3-(3,4-dihydroxyphenyl)-2-propenoic acid]	comparable to that of allopurinol	superior to that of quercetin	1.96 × 10^6 (U)	46600 μ/mg	222	6	66.8 nM	readily soluble	slightly soluble		
O=c1cc(-c2ccc(O)c(O)c2)oc2cc(O)cc(O)c12 [Luteolin, luteolin, reference compound]										384 nM	0.19
O=C(/C=C/c1ccc(O)c(O)c1)O/C=C\c1cc(O)cc(O)c1 [XOI-B, (Z,E)-2-(3,5-dihydroxyphenyl)ethenylester of 3-(3,4-dihydroxyphenyl)-2-propenoic acid]	almost the same as that of luteolin	superior to that of quercetin	0.09 × 10^6 (U)	8040 μ/mg	38		395 nM	readily soluble	slightly soluble		0.17
